For assay [1], the target named is T1, PKM2 (Homo sapiens, UniProt P14618). The assay can be described thus: PKM2 Ex-Vivo Assay. The assay is classed as cell-based. Set-up: endogenous in cells; host or cells: A549. Particulars: A549 cells treated with compound 1-4 hrs, pyruvate kinase activity in lysate; read-out: Ex-Vivo_AC50. As to the method:
Described herein is a method to measure the activity of PKM2 activators in living cells and tissue. One of ordinary skill in the art would recognize and understand that this method can be adapted to high throughput format, and can accommodate a variety of cell lines and growth conditions.
In the assay, cells are treated with a compound described herein (i.e., a PKM2 activator). This compound is capable of entering the cell and binding to PKM2, inducing an activated conformation. The excess unbound compound is washed away with PBS, and the cells are lysed by snap-freezing on dry ice, followed by addition of a detergent-containing lysis buffer. The lysate, in which activated PKM2 remains intact, is removed and added to a chemical cocktail including the chemicals necessary to measure pyruvate kinase activity, in an assay that is coupled to the LDHa enzyme. The amount of pyruvate kinase activity that is measured is normalized to the total protein content in the lysate, and related to the concentration of PKM2 activator that was added to the cell. This allows an AC50 (concentration at which PKM2 is activated 50%) value to be derived. The total fold-increase in activity over mock-treated cells can also be calculated, and the “maximum level of activation” can be used to distinguish between compounds that fully activate PKM2 and compounds that can only partially activate PKM2.
• Lysis buffer* • 20 mM Tris-HCl (pH 7.5) • 150 mM NaCl • 1 mM Na2EDTA • 1 mM EGTA • 1% Triton • 2.5 mM sodium pyrophosphate • 1 mM beta-glycerophosphate • 1 mM Na3VO4 • 1 μg/ml leupeptin • 1 mM PMSF** * This lysis buffer (without PMSF) is available from Cell Signaling Technology as a 10× stock (#9803) ** 1 mM PMSF is added fresh from a 100 mM stock solution made up in isopropanol. The stock solution can be stored at 4 degrees indefinitely. Pyruvate Kinase Assay Master Mix (Same for PKM2 Activator Assay):
On the first day (day 1) cells are normally cultured in RPMI-1640 (Lonza #[…].) (with 25 mM Hepes, L-glutamine)/10% FBS. The cells are subsequently trypsinized and plated in RPMI-1640 (Lonza, #12-918F) (no phenol red, supplemented with L-glutamine @300 mg/L (Sigma, #G8540))/10% FBS at the following densities in 96 well plates:
100 uL final volume of media per well.
On the second day (Day 2), the cells should be 70-90% confluent. The cells are then treated with a compound described herein dissolved in media at final assay concentrations in a 96-well assay block (500 uL) (Costar, #3956). The final DMSO concentration is 0.1% (0.5 μL into 500 uL). Compound dilutions in DMSO are prepared so that the final DMSO concentration is constant at all compound concentrations. The media for the assay is RPMI-1640 (no phenol red, with L-glutamine @300 mg/L).
The media is then aspirated carefully from the cells using a multi-channel aspirator. 100 μL of media w/compounds is added onto cells with a multichannel pipette. Each compound concentration is then assayed in triplicate (a duplicate assay is also sufficient).
The cells are treated for 1-4 hrs (this time is determined empirically compared to DMSO reference treatment). During the cell treatment, PBS (containing calcium and magnesium) and lysis buffer is cooled on ice.
The cells are lysed and the pyruvate kinase activity is assayed. The remaining media is aspirated and the cells are washed 2× with 100 uL ice-cold PBS. The PBS is removed, and the cell plate frozen on dry ice for 5 minutes. The cells are lysed in 50 μL cold lysis buffer. Cells are subsequently kept on ice for 5 minutes, and then agitated on a plate shaker for 5 minutes (repeat 3×). Remove 10 μL for protein quantitation (or use OD280 on entire plate).
In a fresh plate, 170 uL of pyruvate kinase assay master mix was added to each well (see end for recipe). 10 uL of cell lysate was then transferred into each well. The assay was initiated upon addition of 20 uL of ADP solution. […]
Target sequence in this assay (P14618 2-531 limits assumed): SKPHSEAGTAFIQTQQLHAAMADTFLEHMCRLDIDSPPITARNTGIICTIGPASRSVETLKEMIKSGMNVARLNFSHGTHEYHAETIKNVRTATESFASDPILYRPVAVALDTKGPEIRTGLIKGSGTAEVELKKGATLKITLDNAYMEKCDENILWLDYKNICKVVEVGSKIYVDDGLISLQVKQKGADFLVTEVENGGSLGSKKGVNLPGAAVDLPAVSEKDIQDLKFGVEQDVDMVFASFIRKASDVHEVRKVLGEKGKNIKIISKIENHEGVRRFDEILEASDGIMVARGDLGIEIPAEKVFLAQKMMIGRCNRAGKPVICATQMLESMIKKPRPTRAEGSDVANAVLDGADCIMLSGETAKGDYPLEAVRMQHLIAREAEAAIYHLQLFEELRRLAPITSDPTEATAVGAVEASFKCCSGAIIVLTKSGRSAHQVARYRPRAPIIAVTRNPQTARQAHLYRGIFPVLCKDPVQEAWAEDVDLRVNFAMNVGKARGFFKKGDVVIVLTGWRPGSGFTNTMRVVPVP

Assay [2] concerns the target T1, PKM2. The assay is described as follows: PKM2 Assay. The assay is classed as biochemical. Particulars: activation of PKM2 enzyme, LDH-coupled, absorbance at 340 nm; read-out: PKM2_AC50. On the procedure: • PKM2 stock enzyme solution was diluted in Reaction Buffer • 2 μL of compound was added into each well first, and then 180 μL of the Reaction Mix was added. • Reaction mixture with compound (without ADP) were incubated for 30 minutes at 4° C. • Plates were re-equilibrated to room temperature prior to adding 20 μL ADP to initiate the reaction. • Reaction progress was measured as changes in absorbance at 340 nm wavelength at room temperature (25° C.) • Reaction Mix: PKM2 (50 ng/well), ADP (0.7 mM), PEP (0.15 mM), NADH (180 μM), LDH (2 units) in Reaction Buffer • Reaction Buffer: 100 mM KCl, 50 mM Tris pH 7.5, 5 mM MgCl2, 1 mM DTT, 0.03% BSA.
Target sequence in this assay (P14618 whole entry): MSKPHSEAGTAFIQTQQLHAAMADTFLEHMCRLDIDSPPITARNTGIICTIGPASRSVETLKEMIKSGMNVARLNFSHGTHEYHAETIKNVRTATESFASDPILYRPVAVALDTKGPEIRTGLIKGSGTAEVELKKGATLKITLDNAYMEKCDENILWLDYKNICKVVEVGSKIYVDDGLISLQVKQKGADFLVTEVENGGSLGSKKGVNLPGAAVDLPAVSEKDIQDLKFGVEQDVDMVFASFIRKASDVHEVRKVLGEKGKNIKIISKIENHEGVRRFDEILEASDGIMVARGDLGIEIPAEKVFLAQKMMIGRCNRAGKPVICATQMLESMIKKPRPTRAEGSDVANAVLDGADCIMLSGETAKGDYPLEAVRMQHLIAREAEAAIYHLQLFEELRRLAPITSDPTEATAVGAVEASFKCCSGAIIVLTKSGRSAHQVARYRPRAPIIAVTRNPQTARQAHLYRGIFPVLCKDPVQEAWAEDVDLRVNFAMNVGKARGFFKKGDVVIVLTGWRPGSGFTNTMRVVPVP

With `Cc1cc(C)cc(NS(=O)(=O)c2cccn2-c2ncccn2)c1`, the AC50 on PKM2 [1] is not above 1000 nM.
Consider `Cc1cc(C)cc(NS(=O)(=O)c2cccn2-c2ccc(C(F)(F)F)cn2)c1`, for which the AC50 was 100 to 500 nM at PKM2 [2] and not above 1000 nM on PKM2 [1].
In the case of `CCc1cccc(NS(=O)(=O)c2cccn2-c2ccnc(Cl)n2)c1`, the AC50 at PKM2 [2] was 100 to 500 nM; on PKM2 [1], more than 1000 nM.
`O=S(=O)(Nc1ccc(Cl)cc1)c1cccn1-c1ncc(C(F)(F)F)cc1Cl`: the AC50 at PKM2 [1] is not above 1000 nM.
`O=S(=O)(Nc1cccc(Cl)c1)c1cccn1-c1ncc(C(F)(F)F)cc1Cl`: the AC50 is less than 100 nM at PKM2 [2] and not above 1000 nM at PKM2 [1].
For the molecule `Cc1cc(C)cc(NS(=O)(=O)c2cccn2-c2ncc(C(F)(F)F)cc2Cl)c1`, on PKM2 [1], the AC50 was not above 1000 nM.
Turning to `Cc1cc(C)cc(NS(=O)(=O)c2cccn2-c2ccnc(Cl)n2)c1`, the AC50 at PKM2 [2] is less than 100 nM; on PKM2 [1], more than 1000 nM.
Regarding `Cc1ccc(NS(=O)(=O)c2cccn2-c2ncc(C(F)(F)F)cc2Cl)cc1`, the AC50 on PKM2 [2] was less than 100 nM; at PKM2 [1] it was not above 1000 nM.
The like results for `Cc1cc(NS(=O)(=O)c2cccn2-c2ncc(C(F)(F)F)cc2Cl)ccc1Cl` were, in that order, less than 100 nM and not above 1000 nM.
In the same order, the values of `Cc1ccc(NS(=O)(=O)c2cccn2-c2ncc(C(F)(F)F)cc2Cl)cc1C` are less than 100 nM and not above 1000 nM.
For `O=S(=O)(Nc1ccc2c(c1)OCO2)c1cccn1-c1ncc(C(F)(F)F)cc1Cl`, the AC50 at PKM2 [1] is not above 1000 nM.
With `Cc1cc(C)cc(NS(=O)(=O)c2cccn2-c2nccc(Cl)n2)c1`, the values for the AC50 on PKM2 [2] and on PKM2 [1] were less than 100 nM and more than 1000 nM, respectively.
On to `O=S(=O)(Nc1ccccc1)c1cccn1-c1ncc(C(F)(F)F)cc1Cl`, for which the AC50 is less than 100 nM on PKM2 [2] and not above 1000 nM on PKM2 [1].
Take `Cc1cc(NS(=O)(=O)c2cncn2-c2ncc(C(F)(F)F)cc2Cl)ccc1Cl`: the AC50 is 100 to 500 nM on PKM2 [2] and not above 1000 nM at PKM2 [1].
Regarding `O=S(=O)(Nc1ccc(F)c(Cl)c1)c1cncn1-c1ncc(C(F)(F)F)cc1Cl`, the AC50 is 100 to 500 nM on PKM2 [2] and not above 1000 nM at PKM2 [1].
For the molecule `Cc1ccc(NS(=O)(=O)c2cncn2-c2ncc(C(F)(F)F)cc2Cl)cc1C`, the AC50 at PKM2 [2] was less than 100 nM; on PKM2 [1], not above 1000 nM.
As for `Cc1cc(NS(=O)(=O)c2cncn2-c2ncc(C(F)(F)F)cc2Cl)ccc1F`, the AC50 is less than 100 nM on PKM2 [2] and not above 1000 nM on PKM2 [1].
Take `Cc1cccc(NS(=O)(=O)c2cncn2-c2ncc(C(F)(F)F)cc2Cl)c1`: the AC50 at PKM2 [1] was not above 1000 nM.
The same measure, in the same setting: next, `Cc1cc(C)cc(NS(=O)(=O)c2cncn2-c2ncc(C(F)(F)F)cc2Cl)c1`: not above 1000 nM.
For `O=S(=O)(Nc1cccc(Cl)c1)c1cncn1-c1ncc(C(F)(F)F)cc1Cl`, the AC50 is 100 to 500 nM at PKM2 [2] and not above 1000 nM on PKM2 [1].
As to `Cc1cc(C)cc(NS(=O)(=O)c2cnn(-c3ncc(C(F)(F)F)cc3Cl)c2)c1`, the AC50 at PKM2 [2] is less than 100 nM; at PKM2 [1], not above 1000 nM.
In the case of `O=S(=O)(Nc1cc(F)cc(F)c1)c1cccn1-c1ncc(C(F)(F)F)cc1Cl`, the AC50 was less than 100 nM on PKM2 [2] and not above 1000 nM at PKM2 [1].
`Cc1cc(NS(=O)(=O)c2cccn2-c2ncc(C(F)(F)F)cc2Cl)ccc1F`: at PKM2 [1], the AC50 was not above 1000 nM.
`O=S(=O)(Nc1ccc2c(c1)OCO2)c1cccn1-c1ncccc1Cl`: the AC50 was less than 100 nM on PKM2 [2] and not above 1000 nM at PKM2 [1].
With `O=S(=O)(Nc1ccc(F)c(Cl)c1)c1cccn1-c1ccnc(Cl)n1`, the values for the AC50 on PKM2 [2] and on PKM2 [1] were less than 100 nM and more than 1000 nM, respectively.
The like results for `O=S(=O)(Nc1ccc(Cl)cc1)c1cncn1-c1cnccn1` were, in that order, 1000 to 10000 nM and not above 1000 nM.
Consider `O=S(=O)(Nc1ccc(Cl)cc1)c1cccn1-c1ncccc1Cl` [drawing 87], for which, at PKM2 [1], the AC50 was not above 1000 nM.
Regarding `Cc1cc(NS(=O)(=O)c2cccn2-c2ncccc2Cl)ccc1F` [drawing 101], on PKM2 [2], the AC50 is less than 100 nM.
Turning to `O=S(=O)(Nc1ccc(F)c(Cl)c1)c1cncn1-c1ncccn1` [drawing 117], the AC50 at PKM2 [2] fell in the range of 100 to 500 nM.
With `COc1cc(NS(=O)(=O)c2cncn2-c2ncc(C(F)(F)F)cc2Cl)cc(C(F)(F)F)c1` [drawing 122], the AC50 at PKM2 [2] fell in the range of 1000 to 10000 nM.
On to `O=S(=O)(Nc1ccc2ccccc2c1)c1cncn1-c1ncc(C(F)(F)F)cc1Cl` [drawing 128], for which the results for the AC50 at PKM2 [2] and on PKM2 [1] were less than 100 nM and not above 1000 nM, respectively.
Consider `Cc1cc(NS(=O)(=O)c2cncn2-c2ncccn2)ccc1F` [drawing 132], for which the AC50 at PKM2 [2] was less than 100 nM.
As to `COc1cc(NS(=O)(=O)c2cncn2-c2ncc(C(F)(F)F)cc2Cl)cc(C(F)(F)F)c1` [drawing 144], the AC50 on PKM2 [2] lay in the range of 500 to 1000 nM.
With `COc1cc(NS(=O)(=O)c2cncn2-c2ncc(C(F)(F)F)cc2Cl)cc(C(F)(F)F)c1` [drawing 149], the AC50 at PKM2 [2] is 1000 to 10000 nM.
As to `O=S(=O)(Nc1ccc2ccccc2c1)c1cncn1-c1ncc(C(F)(F)F)cc1Cl` [drawing 151], the AC50 at PKM2 [2] is 100 to 500 nM; at PKM2 [1], not above 1000 nM.
In the case of `O=S(=O)(Nc1ccc(Cl)cc1)c1cccn1-c1ncccc1Cl` [drawing 154], on PKM2 [2], the AC50 is 100 to 500 nM.
For the molecule `Cc1cc(NS(=O)(=O)c2cncn2-c2ncccn2)ccc1F` [drawing 158], the AC50 on PKM2 [2] is 100 to 500 nM; at PKM2 [1], not above 1000 nM.
Regarding `O=S(=O)(Nc1ccc(F)c(Cl)c1)c1cncn1-c1ncccn1` [drawing 160], on PKM2 [1], the AC50 was not above 1000 nM.
With `Cc1cc(NS(=O)(=O)c2cccn2-c2ncccc2Cl)ccc1F` [drawing 161], the AC50 at PKM2 [2] is 100 to 500 nM; on PKM2 [1], not above 1000 nM.
As for `O=S(=O)(Nc1cc(F)cc(F)c1)c1cccn1-c1ncccc1Cl` [drawing 162], the AC50 at PKM2 [2] was less than 100 nM.

(Values after patent US9938259B2, “Therapeutic compositions and related methods of use” (Agios Pharmaceuticals, Inc., priority 2009, dated 2018).)
